Experimental data as given in patent US7109354B2, “Thiophene amidines, compositions thereof, and methods of treating complement-mediated diseases and conditions” (3-Dimensional Pharmaceuticals, Inc., priority 2002, dated 2006).
Values joined by “and” are separate entries in the source; they are usually repeats but may differ in a detail not shown here. Equal values may be shown once. Where a name gives a salt, the structure may show the parent alone.

What follows are molecules tested against T1, Activated human C1s (Homo sapiens, UniProt P09871) (assay: In vitro inhibition of C1s (Ki determination, C1s-catalyzed hydrolysis of Z-Gly-Arg-S-Bzl, DTNB readout)). Conditions: substrate Z-Gly-Arg-S-Bzl 45 μM, DTNB 200 μM, C1s 2.3 nM, pH 7.5, 37° C., absorbance at 405 nm.
T1 construct: purchased Calbiochem (La Jolla, Calif.)
T1 sequence (P09871 438-688 limits assumed): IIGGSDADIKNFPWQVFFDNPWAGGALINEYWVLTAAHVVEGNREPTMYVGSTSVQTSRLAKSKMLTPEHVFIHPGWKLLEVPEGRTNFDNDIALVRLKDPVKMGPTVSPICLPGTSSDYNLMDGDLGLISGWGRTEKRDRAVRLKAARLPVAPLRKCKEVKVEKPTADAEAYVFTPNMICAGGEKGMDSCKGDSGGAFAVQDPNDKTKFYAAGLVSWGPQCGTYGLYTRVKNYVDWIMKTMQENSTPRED
T1 sequence (P09871 16-437 partner limits assumed): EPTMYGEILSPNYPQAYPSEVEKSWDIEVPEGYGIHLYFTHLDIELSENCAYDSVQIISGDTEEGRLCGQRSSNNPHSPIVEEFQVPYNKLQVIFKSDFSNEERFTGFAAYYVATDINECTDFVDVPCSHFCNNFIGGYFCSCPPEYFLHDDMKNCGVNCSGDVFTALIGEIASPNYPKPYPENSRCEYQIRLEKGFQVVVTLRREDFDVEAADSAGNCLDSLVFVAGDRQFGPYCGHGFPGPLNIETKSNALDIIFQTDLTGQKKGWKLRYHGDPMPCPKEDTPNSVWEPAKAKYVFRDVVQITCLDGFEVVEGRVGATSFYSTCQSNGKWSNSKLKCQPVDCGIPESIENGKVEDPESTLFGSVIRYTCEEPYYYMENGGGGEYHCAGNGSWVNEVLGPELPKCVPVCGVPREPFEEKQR
Format: biochemical
Procedure: Reagents: All buffer salts were obtained from Sigma Chemical Company (St. Louis, Mo.), and were of the highest purity available. DTNB was purchased from Pierce (Rockford, Ill.). Z-Gly-Arg-S-Bzl was purchased from Enzyme Systems Products (Livermore, Calif.). Activated human C1s was purchased from Calbiochem (La Jolla, Calif.).
Test compounds are prepared as a 10 μM solution in DMSO. Dilutions are prepared in DMSO yielding 7 final concentrations encompassing a 700-fold concentration range.
Reactions were initiated by the addition of a 10 μL aliquot of the enzyme, and the absorbance increase at 405 nm is continuously recorded for 15 minutes in a Molecular Devices plate reader. Final DMSO concentration was 4.3%. […] The ratio of the velocity (rate of change in absorbance as a function of time) for a sample containing no test compound is divided by the velocity of a sample containing test compound, and is plotted as a function of test compound concentration. The data are fit to a linear regression, and the value of the slope of the line calculated. The inverse of the slope is the experimentally determined Ki value.
In the case of `CSc1sc(C(=N)N)cc1S(=O)(=O)c1cccc(-c2ccc(F)cc2C)c1` [Example 219, 4-(4′-Fluoro-2′-methyl-biphenyl-3-sulfonyl)-5-methylsulfanyl-thiophene-2-carboxamidine trifluoroacetate], the Ki is reported as 0.006 to 0.023 µM.
For `CSc1sc(C(=N)N)cc1S(=O)(=O)c1cccc(-c2ccccc2C(F)(F)F)c1` [Example 67, 5-Methylsulfanyl-4-(2′-trifluoromethyl-biphenyl-3-sulfonyl)-thiophene-2-carboxamidine], the Ki was 0.006 to 0.023 µM.
`CSc1sc(C(=N)N)cc1S(=O)(=O)c1ccc(C)c(-c2ccccc2)c1` [Example 115, 4-(6-Methyl-biphenyl-3-sulfonyl)-5-methylsulfanyl-thiophene-2-carboxamidine trifluoroacetate] gave a Ki of 0.006 to 0.023 µM.
`CSc1sc(C(=N)N)cc1S(=O)(=O)c1cccc(-c2ccccc2Cl)c1` [Example 69, 4-(2′-Chloro-biphenyl-3-sulfonyl)-5-methylsulfanyl-thiophene-2-carboxamidine] showed a Ki of 0.006 to 0.023 µM.
`CSc1sc(C(=N)N)cc1S(=O)(=O)c1cccc(-c2ccc(NC(=N)NCCCCCS(C)(=O)=O)cc2C)c1` [Example 173, 4-{4′-[N′-(5-Methanesulfonyl-pentyl)-guanidino]-2′-methyl-biphenyl-3-sulfonyl}-5-methylsulfanyl-thiophene-2-carboxamidine trifluoroacetate] showed a Ki of 0.006 to 0.023 µM.
Molecule `CSc1sc(C(=N)N)cc1S(=O)(=O)c1cccc(-c2cccc3c2oc2ccccc23)c1` [Example 66, 4-(3-Dibenzofuran-4-yl-benzenesulfonyl)-5-methylsulfanyl-thiophene-2-carboxamidine] has a Ki of 0.006 to 0.023 µM.
Work on `CCOc1cccc(-c2cccc(S(=O)(=O)c3cc(C(=N)N)sc3SC)c2)c1` [Example 95, 4-(3′-ethoxy-biphenyl-3-sulfonyl)-5-methylsulfanyl-thiophene-2-carboxamidine] yielded a Ki of 0.006 to 0.023 µM.
`CSc1sc(C(=N)N)cc1S(=O)(=O)c1cccc(-c2cccc(C(F)(F)F)c2)c1` [Example 63, 5-Methylsulfanyl-4-(3′-trifluoromethyl-biphenyl-3-sulfonyl)-thiophene-2-carboxamidine] gave a Ki of 0.006 to 0.023 µM.
`CSc1sc(C(=N)N)cc1S(=O)(=O)c1cccc(-c2c(C)cc(NC(=N)N)cc2N)c1` [Example 237, 4-(6′-Amino-4′-guanidino-2′-methyl-biphenyl-3-sulfonyl)-5-methylsulfanyl-thiophene-2-carboxamidine bis-trifluoroacetate] showed a Ki of 0.006 to 0.023 µM.
For `CSc1sc(C(=N)N)cc1S(=O)(=O)c1cccc(-c2cccc(C=O)c2)c1` [Example 61, 4-(3′-Formyl-biphenyl-3-sulfonyl)-5-methylsulfanyl-thiophene-2-carboxamidine], the Ki was 0.006 to 0.023 µM and 0.006 µM.
Work on `CSc1sc(C(=N)N)cc1S(=O)(=O)c1cccc(-c2ccc(NC(=N)NCCCCCC(=O)O)cc2C)c1` [Example 263, 6-{N′-[3′-(5-Carbamimidoyl-2-methylsulfanyl-thiophene-3-sulfonyl)-2-methyl-biphenyl-4-yl]-guanidino}-hexanoic acid] yielded a Ki of 0.006 to 0.023 µM.
Work on `COc1cc(-c2ccccc2)cc(S(=O)(=O)c2cc(C(=N)N)sc2SC)c1` [Example 15, 4-(5-Methoxy-biphenyl-3-sulfonyl)-5-methylsulfanyl-thiophene-2-carboxamidine hydrochloride] yielded a Ki of 0.006 to 0.023 µM.
In the case of `CSc1sc(C(=N)N)cc1S(=O)(=O)c1cccc(-c2c(C)cccc2NC(=O)CCCS(C)(=O)=O)c1` [Example 209, N-[3′-(5-Carbamimidoyl-2-methylsulfanyl-thiophene-3-sulfonyl)-6-methyl-biphenyl-2-yl]-4-methanesulfonyl-butyramide trifluoroacetate], the Ki is reported as 0.006 to 0.023 µM.
For `CSc1sc(C(=N)N)cc1S(=O)(=O)c1cccc(-c2cccc(C(C)C)c2)c1` [Example 98, 4-(3′-isopropyl-biphenyl-3-sulfonyl)-5-methylsulfanyl-thiophene-2-carboxamidine], the Ki was 0.006 to 0.023 µM.
With `CSc1sc(C(=N)N)cc1S(=O)(=O)c1cccc(-c2ncccc2C)c1` [Example 11, 4-[3-(3-Methyl-pyridin-2-yl)-benzenesulfonyl]-5-methylsulfanyl-thiophene-2-carboxamidine bis-trifluoroacetate] the Ki was 0.006 to 0.023 µM and 0.023 µM.
`CSc1sc(C(=N)N)cc1S(=O)(=O)c1cccc(-c2cc(Cl)ccc2Cl)c1` [Example 47, 4-(2′,5′-Dichloro-biphenyl-3-sulfonyl)-5-methylsulfanyl-thiophene-2-carboxamidine] was tested, and the Ki was 0.006 to 0.023 µM.
`COc1ccccc1-c1cccc(S(=O)(=O)c2cc(C(=N)N)sc2SC)c1` [Example 45, 4-(2′-Methoxy-biphenyl-3-sulfonyl)-5-methylsulfanyl-thiophene-2-carboxamidine] showed a Ki of 0.006 to 0.023 µM.
Molecule `CSc1sc(C(=N)N)cc1S(=O)(=O)c1cccc(-c2ccc(N(C)C(=N)N)cc2C)c1` [Example 262, 4-[2′-Methyl-4′-(N-methyl-guanidino)-biphenyl-3-sulfonyl]-5-methylsulfanyl-thiophene-2-carboxamidine bis-trifluoroacetate] has a Ki of 0.006 to 0.023 µM.
Work on `CSc1sc(C(=N)N)cc1S(=O)(=O)c1cccc(-c2cccc(C)c2)c1` [Example 60, 4-(3′-methyl-biphenyl-3-sulfonyl)-5-methylsulfanyl-thiophene-2-carboxamidine] yielded a Ki of 0.006 to 0.023 µM.
`CSc1sc(C(=N)N)cc1S(=O)(=O)c1cccc(-c2c(C)cccc2NC(=O)NCCCCCC(=O)O)c1` [Example 240, 6-{3-[3′-(5-Carbamimidoyl-2-methylsulfanyl-thiophene-3-sulfonyl)-6-methyl-biphenyl-2-yl]-ureido}-hexanoic acid trifluoroacetate] gave a Ki of 0.006 to 0.023 µM.
Work on `CSc1sc(C(=N)N)cc1S(=O)(=O)c1cccc(-c2c(C)cc(NC(=N)N)cc2NC(=O)NCCCCS(C)(=O)=O)c1` [Example 184, 4-{4′-Guanidino-2′-[3-(4-methanesulfonyl-butyl)-ureido]-6′-methyl-biphenyl-3-sulfonyl}-5-methylsulfanyl-thiophene-2-carboxamidine trifluoroacetate] yielded a Ki of 0.006 to 0.023 µM.
`C=Cc1ccc(-c2cccc(S(=O)(=O)c3cc(C(=N)N)sc3SC)c2)cc1` [Example 94, 5-methylsulfanyl-4-(4′-vinyl-biphenyl-3-sulfonyl)-thiophene-2-carboxamidine] gave a Ki of 0.006 to 0.023 µM.
For `CSc1sc(C(=N)N)cc1S(=O)(=O)c1cc(-c2ccccc2C)c2ncn(C)c2c1` [Example 108, 5-methylsulfanyl-4-(3-methyl-7-o-tolyl-3H-benzoimidazole-5-sulfonyl)-thiophene-2-carboxamidine trifluoroacetate], the Ki was 0.006 to 0.023 µM.
`CSc1sc(C(=N)N)cc1S(=O)(=O)c1cccc(Oc2ccccc2)c1` [Example 116, 5-Metylsulfanyl-4-(3-phenoxy-benzenesulfonyl)-thiophene-2-carboxamidine hydrochloride salt] was tested, and the Ki was 0.006 to 0.023 µM.
With `CSc1sc(C(=N)N)cc1S(=O)(=O)c1cccc(-c2ccco2)c1` [Example 76, 4-(3-Furan-2-yl-benzenesulfonyl)-5-methylsulfanyl-thiophene-2-carboxamidine] the Ki was 0.006 to 0.023 µM.
`Cc1ccccc1-c1cccc(S(=O)(=O)c2cc(C(=N)N)sc2Br)c1` [Example 24, 5-Bromo-4-(2′-methyl-biphenyl-3-sulfonyl)-thiophene-2-carboxamidine trifluoroacetate] gave a Ki of 0.006 to 0.023 µM.
For `CSc1sc(C(=N)N)cc1S(=O)(=O)c1cccc(-c2cc(C=O)ccc2C)c1` [Example 8, 4-(5′-Formyl-2′-methyl-biphenyl-3-sulfonyl)-5-methylsulfanyl-thiophene-2-carboxamidine trifluoroacetate], the Ki was 0.006 to 0.023 µM.
In the case of `CSc1sc(C(=N)N)cc1S(=O)(=O)c1cccc(-c2ccc(C(F)(F)F)cc2)c1` [Example 54, 5-Methylsulfanyl-4-(4′-trifluoromethyl-biphenyl-3-sulfonyl)-thiophene-2-carboxamidine], the Ki is reported as 0.006 to 0.023 µM.
For `CSc1sc(C(=N)N)cc1S(=O)(=O)c1cccc(-c2ccc(NC(N)=NCCCc3ccccc3)cc2C)c1` [Example 280, 4-{2′-Methyl-4′-[N′-(3-phenyl-propyl)-guanidino]-biphenyl-3-sulfonyl}-5-methylsulfanyl-thiophene-2-carboxamidine bistrifluoroacetate], the Ki was 0.006 to 0.023 µM.
`CCCCCCNC(=N)Nc1ccc(-c2cccc(S(=O)(=O)c3cc(C(=N)N)sc3SC)c2)c(C)c1` [Example 136, 4-[4′-(N′-Hexyl-guanidino)-2′-methyl-biphenyl-3-sulfonyl]-5-methylsulfanyl-thiophene-2-carboxamidine trifluoroacetate] was tested, and the Ki was 0.006 to 0.023 µM.
